Test results as given in US20180371076A1, “MATERNAL TH17 CELLS AND PSYCHIATRIC DISORDERS” (New York University, priority 2017, published 2018).

Columns and labels:
[1] = tested on: offspring of pregnant mice (MIA mouse model); experiment: Open field test in adult offspring; assay type: in vivo
Procedure: Maternal Immune Activation. Mice were mated overnight and females were checked daily for the presence of seminal plugs, noted as embryonic day 0.5 (E0.5). On E12.5, pregnant female mice were weighed and injected with a single dose (20 mg/kg; i.p.) of poly(I:C) (Sigma Aldrich) or PBS vehicle. Each dam was returned to its cage and left undisturbed until the birth of its litter. All pups remained with the mother until weaning on postnatal day 21 (P21), at which time mice were group housed at maximum 5 per cage with same-sex littermates. For the IL-17 cytokine blockade experiment, monoclonal IL-17a blocking antibody (clone 50104; R&D) or isotype control antibody (IgG2a, clone 54447; R&D) was administered 6 h before maternal immune activation (FIG. 2) via i.p. route (500 μg/animal) or 2 days after maternal immune activation (FIG. 5) via i.p. route (500 μg/animal).
Open field test. Adult mice were placed in a 50×50 cm white Plexiglas box. Activity was recorded by a video camera and data was analyzed with Ethovision software (Noldus). The software allows display of the paths taken by the mice, and it measures the total distance moved into the center of the arena in a 10 min session.

[2] = tested on: IFN-β; experiment: IFN-β ELISA of maternal serum; assay type: in vivo, mouse; conditions: poly(I:C) at E12.5, 3 h, vs PBS
Procedure: (§1) Cell preparation, Flow cytometry, ELISA Embryos at each implantation site were dissected in ice-cold HBSS containing Ca2+ and Mg2+ (Gibco). Myometrium was first peeled off of the decidua and embryos were discarded. Dissected decidual and placental tissues were then minced and enzymatically dissociated in HBSS containing 0.28 Wunsch units (WU)/mL Liberase (Roche) and 30 μg/mL DNase I (Roche) for 30 min at 37° C. with intermittent mixing. Digested tissues were washed in PBS containing 5 mM EDTA and 5% fetal bovine serum and then incubated again in the same buffer for 15 min at 37° C. prior to filtration through a cell strainer. […] Intracellular cytokine staining was performed according to the manufacturer's protocol (Cytofix/Cytoperm buffer set from BD with Pacific Blue-conjugated CD4, FITC or PerCP-Cy5.5-conjugated CD8, APC4 Cy7-conjugated TCR-β, PE-Cy7-conjugated anti-IL-17a, PE-conjugated anti-IFN-γ, PECy7-conjugated anti-CD25 and PE-conjugated Foxp3 (eBioscience). LSR II (BD Biosciences) and FlowJo software (Tree Star) were used for flow cytometry and analysis. Dead cells were excluded using the Live/Dead fixable aqua dead cell stain kit (Invitrogen). For ELISA with sera and placenta/decidua extract, IL-6 (Ebioscience), IL-17a, TNF-α, IL-1β, IFN-β (Biolgened), and IL-10 (BD) were measured according to the manufacturer's protocol.

[3] = tested on: IL-17a mRNA; experiment: Real-time PCR of IL-17a mRNA (placenta/decidua mononuclear cells, fetal brain); assay type: cell-based, mouse
[4] = tested on: TNF-α; experiment: TNF-α ELISA of maternal serum; assay type: in vivo, mouse; conditions: poly(I:C) at E12.5, 3 h, vs PBS
Procedure: as §1

## poly(I:C)
[1]; offspring of MIA mothers
  total distance covered in open field: did not affect the total distance covered
[1]; offspring of poly(I:C)-injected WT or RORγ/γt HET animals vs PBS-injected WT
  time in the center of an open field: significantly reduced time in the center
[2]
  serum IFN-β: strong induction
[3]; isolated at E14.5, cultured 24 h
  IL-17a mRNA in placenta- and decidua-associated mononuclear cells: strongly up-regulated
[3]; regardless of poly(I:C) injection
  IL-17a mRNA in fetal brain at E14.5: not detected
[4]
  serum TNF-α: strong induction
